US20240158446A1, “CYCLIC COMPOUND HAVING SELECTIVE INHIBITORY ACTION ON KRAS OVER HRAS AND NRAS” (CHUGAI SEIYAKU KABUSHIKI KAISHA, priority 2021, published 2024)
Read-outs that look alike come from different tables or passages of the source. *1 amine or outer side, *2 acyl side, *3 side chain or, on linkers, in order; H or OH if unused. Where a SMILES comes first, the peptide text is derived from it. Bridges are numbered along the chain shown (N, C = ends). [ ]: non-standard residue; d: D form. The star is where a group is joined. hPhe(3-Cl-4-CF3) = N[C@@H](CCc1ccc(C(F)(F)F)c(Cl)c1)C(=O)O; NPrPhe(4-CF3) = CCCN[C@@H](Cc1ccc(C(F)(F)F)cc1)C(=O)O; X41 = Cc1ccc(C[C@@H](C(=O)[*:2])N(CC2CCCCC2)[*:1])cc1; NMeGly(cPent) = CN[C@H](C(=O)O)C1CCCC1; Pro(4,4-F2) = O=C(O)[C@@H]1CC(F)(F)CN1; Pro(4S-Me) = C[C@@H]1CN[C@H](C(=O)O)C1; Aze(3S-Me) = C[C@H]1CN[C@@H]1C(=O)O; Hyp = O=C(O)[C@@H]1C[C@@H](O)CN1; NMeD = CN[C@@H](CC(=O)O)C(=O)O; NMeL = CN[C@@H](CC(C)C)C(=O)O; Morpholide = C1CN(*)CCO1; NMeA = CN[C@@H](C)C(=O)O; Piperidide = C1CCN(*)CC1; Ac5c = NC1(C(=O)O)CCCC1; Aze = O=C(O)[C@@H]1CCN1; Sar = CNCC(=O)O

Experiments:
[1] = molecular target: GDP-bound HRAS wild-type protein (Homo sapiens, UniProt P01112); assay: Binding to HRAS by surface plasmon resonance (SPR), Single Cycle Kinetics; conditions: for HRAS/KRAS (ratio of KD value for HRAS to KD value for KRAS) / HRAS/KRAS (ratio of KD value with respect to HRAS to KD value with respect to KRAS): SPR, GDP-bound HRAS wild-type protein vs GDP-bound KRAS wild-type protein
[2] = molecular target: GDP-bound NRAS wild-type protein (Homo sapiens, UniProt P01111); assay: Binding to NRAS by surface plasmon resonance (SPR), Single Cycle Kinetics; conditions: for NRAS/KRAS (ratio of KD value for NRAS to KD value for KRAS) / NRAS/KRAS (ratio of KD value with respect to NRAS to KD value with respect to KRAS): SPR, GDP-bound NRAS wild-type protein vs GDP-bound KRAS wild-type protein
[3] = molecular target: GDP-bound KRAS wild-type protein (Homo sapiens, UniProt P01116); assay: Binding to KRAS by surface plasmon resonance (SPR), Single Cycle Kinetics; conditions: GDP-bound KRAS wild-type protein, read-out: KRAS KD
[4] = SPR Single Cycle Kinetics, 1:1 binding model

GDP-bound HRAS wild-type protein, sequence (P01112 whole entry): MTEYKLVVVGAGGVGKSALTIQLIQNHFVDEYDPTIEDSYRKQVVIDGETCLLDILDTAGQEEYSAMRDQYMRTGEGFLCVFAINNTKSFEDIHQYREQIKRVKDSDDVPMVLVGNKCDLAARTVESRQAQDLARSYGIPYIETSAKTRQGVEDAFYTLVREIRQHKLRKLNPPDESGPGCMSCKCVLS
GDP-bound NRAS wild-type protein, sequence (P01111 whole entry): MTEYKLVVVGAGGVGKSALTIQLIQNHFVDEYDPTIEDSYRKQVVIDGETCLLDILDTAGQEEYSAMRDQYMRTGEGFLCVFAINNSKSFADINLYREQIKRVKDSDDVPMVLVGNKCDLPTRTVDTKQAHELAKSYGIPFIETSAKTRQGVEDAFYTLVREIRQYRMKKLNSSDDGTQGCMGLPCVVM
GDP-bound KRAS wild-type protein, sequence (P01116 whole entry): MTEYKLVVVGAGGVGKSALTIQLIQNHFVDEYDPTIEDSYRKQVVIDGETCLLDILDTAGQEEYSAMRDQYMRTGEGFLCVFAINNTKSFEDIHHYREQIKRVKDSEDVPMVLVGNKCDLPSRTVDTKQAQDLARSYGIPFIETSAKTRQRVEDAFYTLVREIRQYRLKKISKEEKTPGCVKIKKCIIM

Row | Compound | Kd [3, 4] [pM] | HRAS/KRAS (ratio of KD value for HRAS to KD value for KRAS) [1] | NRAS/KRAS (ratio of KD value for NRAS to KD value for KRAS) [2] | other results
1 | CCO[C@@H]1C[C@H]2C(=O)NC3(CCC3)C(=O)N(C)[C@@H](C3CCCC3)C(=O)N(C)[C@H](C(=O)N(C)C)CC(=O)N(C)[C@@H](Cc3cccc(Cl)c3)C(=O)N[C@@H]([C@@H](C)CC)C(=O)N(C)CC(=O)N(C)[C@H]3C/C=C\CCN(C3=O)[C@@H](Cc3ccc(C(F)(F)F)cc3)C(=O)N(C)CC(=O)N[C@@H](CCc3cc(F)c(C(F)(F)F)c(F)c3)C(=O)N2C1 [PP1127, (2S,8S,12R,14S,20S,23S,27S,30S,36S,38Z)-27-[(3-chlorophenyl)methyl]-20-cyclopentyl-8-[2-[3,5-difluoro-4-(trifluoromethyl)phenyl]ethyl]-12-ethoxy-N,N,4,19,22,26,32,35-octamethyl-30-[(1S)-1-methylpropyl]-3,6,9,15,18,21,25,28,31,34,42-undecaoxo-2-[[4-(trifluoromethyl)phenyl]methyl]spiro[1,4,7,10,16,19,22,26,29,32,35-undecazatricyclo[34.5.1.0^10,14]dotetracont-38-ene-17,1′-cyclobutane]-23-carboxamide] | – | A (a compound having 10 or more and less than 20 is denoted as A) | AA (a compound having 20 or more is denoted as AA) | Kd ([3]; SPR, Single Cycle Kinetics): 110 pM
2 | CCCN1C(=O)CN(C)C(=O)CN(C)C(=O)[C@H]([C@@H](C)CC)NC(=O)[C@H](CC(C)C)N(C)C(=O)C[C@@H](C(=O)N(C)C)NC(=O)[C@H](C2CCCC2)N(C)C(=O)C2(CCCC2)NC(=O)[C@@H]2C[C@@H](OCC)CN2C(=O)[C@H](CCc2ccc(C(F)(F)F)c(Cl)c2)NC(=O)CN(C)C(=O)[C@@H]1Cc1ccc(C(F)(F)F)cc1 [PP0359] ([NMeL]I[Sar][Sar][NPrPhe(4-CF3)][Sar][hPhe(3-Cl-4-CF3)][Hyp](Et)[Ac5c][NMeGly(cPent)]D-NMe2; lactam N-11) | 140 | B (a compound having 3 or more and less than 10 is denoted as B) | B (a compound having 3 or more and less than 10 is denoted as B) | –
3 | CCCN1C(=O)[C@@H]2CCN2C(=O)[C@H](C)N(C)C(=O)[C@H]([C@@H](C)CC)NC(=O)[C@H](CC(C)C)N(C)C(=O)C[C@@H](C(=O)N2CCCCC2)N(C)C(=O)[C@H](C2CCCC2)N(C)C(=O)C2(CCCC2)NC(=O)[C@@H]2CCCN2C(=O)[C@H](CCc2ccc(C(F)(F)F)c(Cl)c2)NC(=O)CN(C)C(=O)[C@@H]1Cc1ccc(C(F)(F)F)cc1 [PP0180] ([NMeL]I[NMeA][Aze][NPrPhe(4-CF3)][Sar][hPhe(3-Cl-4-CF3)]P[Ac5c][NMeGly(cPent)][NMeD]-Piperidide; lactam N-11) | 720 | C (A compound having a KD ratio of 0.1 or more and less than 3 is denoted as C) | C (A compound having a KD ratio of 0.1 or more and less than 3 is denoted as C) | –
4 | CCO[C@@H]1C[C@H]2C(=O)NC3(CC(C)(C)C3)C(=O)N(C)[C@@H](C(CC)CC)C(=O)N3CCC[C@@H]3CC(=O)N(C)[C@@H](CC)C(=O)N[C@@H]([C@@H](C)CC)C(=O)N(C)CC(=O)N(C)[C@H]3C/C=C\CCN(C3=O)[C@@H](Cc3ccc(C(F)(F)F)cc3)C(=O)N(C)CC(=O)N[C@@H](CCc3cc(F)c(C(F)(F)F)c(F)c3)C(=O)N2C1 [PP1605] | – | – | – | HRAS/KRAS (ratio of KD value for HRAS to KD value for KRAS) ([1]; KD ratio class): A (a compound having 10 or more and less than 20 is denoted as A); NRAS/KRAS (ratio of KD value for NRAS to KD value for KRAS) ([2]; KD ratio class): A (a compound having 10 or more and less than 20 is denoted as A); Kd ([3]; SPR, Single Cycle Kinetics, 1:1 binding model): 790 pM
5 | CCCN1C(=O)CN(C)C(=O)CNC(=O)[C@H]([C@@H](C)CC)NC(=O)[C@H](CC(C)C)N(C)C(=O)C[C@@H](C(=O)N2CCOCC2)N(C)C(=O)[C@H](C2CCCC2)N(C)C(=O)C2(CCCC2)NC(=O)[C@@H]2C[C@H](C)CN2C(=O)[C@H](CCc2ccc(C(F)(F)F)c(Cl)c2)NC(=O)CN(C)C(=O)[C@@H]1Cc1ccc(C(F)(F)F)cc1 [PP0449] ([NMeL]IG[Sar][NPrPhe(4-CF3)][Sar][hPhe(3-Cl-4-CF3)][Pro(4S-Me)][Ac5c][NMeGly(cPent)][NMeD]-Morpholide; lactam N-11) | 350 | – | – | HRAS/KRAS (ratio of KD value with respect to HRAS to KD value with respect to KRAS) [1]: C (A compound having a KD ratio of 0.1 or more and less than 3 is denoted as C); NRAS/KRAS (ratio of KD value with respect to NRAS to KD value with respect to KRAS) [2]: C (A compound having a KD ratio of 0.1 or more and less than 3 is denoted as C)
6 | CCCN1C(=O)[C@@H]2CCN2C(=O)CN(C)C(=O)[C@H]([C@@H](C)CC)NC(=O)[C@H](CC(C)C)N(C)C(=O)C[C@@H](C(=O)N2CCOCC2)NC(=O)[C@H](C2CCCC2)N(C)C(=O)C2(CCCC2)NC(=O)[C@@H]2CC(F)(F)CN2C(=O)[C@H](CCc2ccc(C(F)(F)F)c(Cl)c2)NC(=O)CN(C)C(=O)[C@@H]1Cc1ccc(C(F)(F)F)cc1 [PP0351] ([NMeL]I[Sar][Aze][NPrPhe(4-CF3)][Sar][hPhe(3-Cl-4-CF3)][Pro(4,4-F2)][Ac5c][NMeGly(cPent)]D-Morpholide; lactam N-11) | 1100 | B (a compound having 3 or more and less than 10 is denoted as B) | C (A compound having a KD ratio of 0.1 or more and less than 3 is denoted as C) | –
7 | CCO[C@@H]1C[C@H]2C(=O)NC3(CC(C)(C)C3)C(=O)N(C)[C@@H](CC(C)(C)C)C(=O)N(C)[C@H](C(=O)N(C)C)CC(=O)N(C)[C@@H](C(C)C)C(=O)N[C@@H]([C@@H](C)CC)C(=O)N(C)CC(=O)N(C)[C@H]3C/C=C\CCN(C3=O)[C@@H](Cc3ccc(C(F)(F)F)cc3)C(=O)N(C)CC(=O)N[C@@H](CCc3ccc(C(F)(F)F)c(OC)c3)C(=O)N2C1 [PP2773] | 520 | – | – | HRAS/KRAS (ratio of KD value with respect to GDP-bound HRAS wild-type protein to KD value with respect to KRAS) ([1]; SPR KD ratio HRAS/KRAS, class symbols): B (a compound having 3 or more and less than 10 is denoted as B); NRAS/KRAS (ratio of KD value with respect to GDP-bound NRAS wild-type protein to KD value with respect to KRAS) ([2]; SPR KD ratio NRAS/KRAS, class symbols): B (a compound having 3 or more and less than 10 is denoted as B)

Continued, in another order:

Row | Kd [3, 4] [pM] | Compound | HRAS/KRAS (ratio of KD value for HRAS to KD value for KRAS) [1] | NRAS/KRAS (ratio of KD value for NRAS to KD value for KRAS) [2] | other results
8 | 8400 | CC[C@H](C)[C@@H]1NC(=O)[C@H](CC(C)C)N(C)C(=O)C[C@@H](C(=O)N2CCOCC2)N(C)C(=O)[C@H](C2CCCC2)N(C)C(=O)C2(CCCC2)NC(=O)[C@@H]2CCCN2C(=O)[C@H](CCc2ccc(C(F)(F)F)c(Cl)c2)NC(=O)CN(C)C(=O)[C@H](Cc2ccc(C)cc2)N(CC2CCCCC2)C(=O)[C@@H]2CCN2C(=O)[C@H](C)N(C)C1=O [PP0085] ([NMeL]I[NMeA][Aze][X41][Sar][hPhe(3-Cl-4-CF3)]P[Ac5c][NMeGly(cPent)][NMeD]-Morpholide; lactam N-11) | C (A compound having a KD ratio of 0.1 or more and less than 3 is denoted as C) | C (A compound having a KD ratio of 0.1 or more and less than 3 is denoted as C) | –
9 | 3100 | CC[C@H](C)[C@@H]1NC(=O)[C@H](CC(C)C)N(C)C(=O)C[C@@H](C(=O)N2CCOCC2)N(C)C(=O)[C@H](C2CCCC2)N(C)C(=O)C2(CCCC2)NC(=O)[C@@H]2[C@@H](O)CCN2C(=O)[C@H](CCc2cc(F)c(C(F)(F)F)c(F)c2)NC(=O)CN(C)C(=O)[C@H](Cc2ccc(C(F)(F)F)cc2)N2CCCCC[C@@H](C2=O)N(C)C(=O)CN(C)C1=O [PP0662] | – | – | HRAS/KRAS (ratio of KD value with respect to HRAS to KD value with respect to KRAS) [1]: B (a compound having 3 or more and less than 10 is denoted as B); NRAS/KRAS (ratio of KD value with respect to NRAS to KD value with respect to KRAS) [2]: B (a compound having 3 or more and less than 10 is denoted as B)
10 | 550 | CCCN1C(=O)[C@@H]2[C@@H](C)CN2C(=O)[C@H](C)N(C)C(=O)[C@H]([C@@H](C)CC)NC(=O)[C@H](CC(C)C)N(C)C(=O)C[C@@H](C(=O)N2CCOCC2)N(C)C(=O)[C@H](C2CCCC2)N(C)C(=O)C2(CCCC2)NC(=O)[C@@H]2CCCN2C(=O)[C@H](CCc2ccc(C(F)(F)F)c(Cl)c2)NC(=O)CN(C)C(=O)[C@@H]1Cc1ccc(C(F)(F)F)cc1 [PP0141] ([NMeL]I[NMeA][Aze(3S-Me)][NPrPhe(4-CF3)][Sar][hPhe(3-Cl-4-CF3)]P[Ac5c][NMeGly(cPent)][NMeD]-Morpholide; lactam N-11) | B (a compound having 3 or more and less than 10 is denoted as B) | C (A compound having a KD ratio of 0.1 or more and less than 3 is denoted as C) | –
11 | 240 | C=CC[C@H]1C(=O)N[C@@H]([C@@H](C)CC)C(=O)N(C)CC(=O)N(C)[C@H]2CCCCCN(C2=O)[C@@H](Cc2ccc(C(F)(F)F)cc2)C(=O)N(C)CC(=O)N[C@@H](CCc2cc(F)c(C(F)(F)F)c(F)c2)C(=O)N2C[C@H](OCC)C[C@H]2C(=O)NC2(CCC2)C(=O)N(C)[C@@H](C2CCCC2)C(=O)N(C)[C@H](C(=O)N(C)C)CC(=O)N1C [PP0665] | – | – | HRAS/KRAS (ratio of KD value with respect to HRAS to KD value with respect to KRAS) [1]: B (a compound having 3 or more and less than 10 is denoted as B); NRAS/KRAS (ratio of KD value with respect to NRAS to KD value with respect to KRAS) [2]: B (a compound having 3 or more and less than 10 is denoted as B)
